Measured values reported in ChEMBL document CHEMBL4270481, “ALK5 kinase inhibitory activity and synthesis of 2,3,4-substituted 5,5-dimethyl-5,6-dihydro-4H-pyrrolo[1,2-b]pyrazoles” (Eur J Med Chem, 2017).
Activity calls are given as the source filed them. The rule behind the calls is not given here.

Legend:
[1] = target: T1, TGF-beta receptor type-1 (Homo sapiens, UniProt P36897); assay: Inhibition of human ALK5 expressed in Sf9 insect cells using casein as substrate in presence of [gamma-33P]ATP; assay type: cell-based
T1 sequence (P36897 whole entry): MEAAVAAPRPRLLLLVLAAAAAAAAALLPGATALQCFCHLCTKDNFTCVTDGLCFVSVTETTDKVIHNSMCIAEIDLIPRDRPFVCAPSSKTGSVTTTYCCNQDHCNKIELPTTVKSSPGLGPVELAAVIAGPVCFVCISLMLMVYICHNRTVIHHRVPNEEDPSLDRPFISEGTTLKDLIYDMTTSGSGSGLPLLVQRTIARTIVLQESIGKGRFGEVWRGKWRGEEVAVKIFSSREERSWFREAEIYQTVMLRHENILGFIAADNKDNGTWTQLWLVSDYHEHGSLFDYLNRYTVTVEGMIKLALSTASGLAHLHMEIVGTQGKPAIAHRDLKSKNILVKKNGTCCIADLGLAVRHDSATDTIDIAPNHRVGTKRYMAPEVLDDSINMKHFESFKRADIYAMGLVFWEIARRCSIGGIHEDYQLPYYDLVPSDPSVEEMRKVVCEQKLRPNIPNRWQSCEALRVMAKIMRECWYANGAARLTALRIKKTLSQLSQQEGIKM

[2] = target: Cyclin-dependent kinase 2/cyclin E1 (Homo sapiens, UniProt P24941); assay: Inhibition of human CDK2/cyclin E expressed in Sf9 insect cells using histone H1 as substrate in presence of [gamma-33P]ATP; assay type: cell-based
[3] = target: Tyrosine-protein kinase ABL1 (Mus musculus, UniProt P00520); assay: biochemical; assay type: cell-based, Sf9
[4] = system: K562; assay: Cytotoxicity against human K562 cells assessed as decrease in cell proliferation after 72 hrs by calcein AM staining-based assay; assay type: functional; conditions: K562, 72 h
[5] = system: MCF7; assay: Cytotoxicity against human MCF7 cells assessed as decrease in cell proliferation after 72 hrs by calcein AM staining-based assay; assay type: functional; conditions: MCF7, 72 h
[6] = target: T2, TGF-beta receptor type-1 (Homo sapiens) (UniProt P36897); conditions: HeLa, at 1 µM
T2 sequence (whole entry): T1 sequence (P36897 whole entry)
Description: Inhibition of ALK5 in serum starved human HeLa cells assessed as reduction in TGF-beta-induced SMAD2/3 nuclear transaction at 1 uM pre-incubated for 30 mins before TGF-beta stimulation for 30 mins by immunofluorescence analysis

Chain of Tyrosine-protein kinase ABL1 (P00520 whole entry): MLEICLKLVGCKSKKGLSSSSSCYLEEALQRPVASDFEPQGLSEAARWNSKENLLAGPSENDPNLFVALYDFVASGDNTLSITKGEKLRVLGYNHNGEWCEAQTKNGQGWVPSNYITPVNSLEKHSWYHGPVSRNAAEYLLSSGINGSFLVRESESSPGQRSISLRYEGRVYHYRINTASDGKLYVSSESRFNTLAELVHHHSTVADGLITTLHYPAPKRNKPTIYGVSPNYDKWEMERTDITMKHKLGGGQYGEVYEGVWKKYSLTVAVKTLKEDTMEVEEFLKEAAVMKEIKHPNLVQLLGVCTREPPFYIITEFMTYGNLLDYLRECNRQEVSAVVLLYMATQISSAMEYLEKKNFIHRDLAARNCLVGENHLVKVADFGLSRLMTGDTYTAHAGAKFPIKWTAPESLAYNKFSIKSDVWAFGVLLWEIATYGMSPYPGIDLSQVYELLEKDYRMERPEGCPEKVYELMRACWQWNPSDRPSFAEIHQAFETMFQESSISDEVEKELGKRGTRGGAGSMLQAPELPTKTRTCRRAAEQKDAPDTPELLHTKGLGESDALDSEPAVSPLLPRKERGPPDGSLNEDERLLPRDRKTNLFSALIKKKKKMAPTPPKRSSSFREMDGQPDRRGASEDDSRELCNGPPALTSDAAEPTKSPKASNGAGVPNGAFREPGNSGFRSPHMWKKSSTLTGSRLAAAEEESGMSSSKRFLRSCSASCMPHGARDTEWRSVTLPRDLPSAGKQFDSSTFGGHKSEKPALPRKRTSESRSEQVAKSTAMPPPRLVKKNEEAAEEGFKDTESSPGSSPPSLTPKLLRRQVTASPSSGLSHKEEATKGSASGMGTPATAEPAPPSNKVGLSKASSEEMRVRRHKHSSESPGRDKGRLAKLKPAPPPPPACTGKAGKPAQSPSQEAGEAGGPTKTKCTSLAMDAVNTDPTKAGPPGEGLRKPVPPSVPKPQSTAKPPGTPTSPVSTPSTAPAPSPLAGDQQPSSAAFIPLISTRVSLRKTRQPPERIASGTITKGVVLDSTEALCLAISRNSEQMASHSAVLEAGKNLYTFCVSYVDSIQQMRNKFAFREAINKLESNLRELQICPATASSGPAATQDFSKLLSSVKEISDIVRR

SMILES	IC50 [1] [µM]	IC50 [2] [µM]	IC50 [3] [µM]	IC50 [4] [µM]	IC50 [5] [µM]	inhibition [6]
Cc1cccc(-c2n[nH]cc2-c2ccc3ncccc3n2)n1 [GW786460X]	–	> 100	21	> 100	> 100	Active
CCc1cccc(-c2nn3c(c2-c2ccc(O)cc2)C(C)C(C)(C)C3)n1 (stereo not given)	0.098	> 100	> 100	> 100	46	–
CCc1cccc(-c2nn3c(c2-c2ccc(O)cc2)[C@@H](C)C(C)(C)C3)n1	0.261	53	> 100	77	58	–
CCc1cccc(-c2nn3c(c2-c2ccnc(Cl)c2)C(C)C(C)(C)C3)n1 (stereo not given)	2.74	> 100	> 100	82	> 100	–
CCOC(=O)c1ccc(-c2c(-c3cccc(C)n3)nn3c2C(C)C(C)(C)C3)cc1 (stereo not given)	2.01	> 100	> 100	45	29	–
Cc1cc(-c2c(-c3cccc(C)n3)nn3c2C(C)C(C)(C)C3)ccn1 (stereo not given)	0.548	> 100	25	> 100	> 100	–
Cc1cccc(-c2nn3c(c2-c2ccncc2)CC(C)(C)C3)n1	0.406	> 100	26	> 100	> 100	–
CC1(C)Cc2c(-c3ccncc3)c(-c3ccccn3)nn2C1	1.94	> 50	> 50	> 100	> 100	–
CCc1cccc(-c2nn3c(c2-c2ccc(OC)cc2)C(C)C(C)(C)C3)n1 (stereo not given)	0.805	> 100	> 100	64	45	–
Cc1cccc(-c2nn3c(c2-c2ccnc(Cl)c2)CC(C)(C)C3)n1	1.23	> 100	> 100	> 100	> 100	–
CCc1cccc(-c2nn3c(c2-c2ccc(O)cc2)[C@H](C)C(C)(C)C3)n1	0.137	> 100	> 100	> 100	> 100	–
CCc1cccc(-c2nn3c(c2-c2ccnc(Nc4ccc(S(N)(=O)=O)cc4)c2)C(C)C(C)(C)C3)n1 (stereo not given)	0.229	37	6.8	24	28	–
Cc1cccc(-c2nn3c(c2-c2ccnc(Nc4ccc(S(N)(=O)=O)cc4)c2)C(C)C(C)(C)C3)n1 (stereo not given)	0.154	11	0.55	31	22	–
Cc1cccc(-c2nn3c(c2-c2ccc(O)cc2)[C@H](C)C(C)(C)C3)n1	0.097	> 100	> 100	> 100	> 100	–
Cc1cccc(-c2nn3c(c2-c2ccnc(Cl)c2)C(C)C(C)(C)C3)n1 (stereo not given)	0.517	> 100	> 100	> 100	> 100	–
CC1(C)Cc2c(-c3ccc(O)cc3)c(-c3ccccn3)nn2C1	1.99	> 100	> 100	74	> 100	–
COc1ccc(-c2c(-c3cccc(C)n3)nn3c2C(C)C(C)(C)C3)cc1 (stereo not given)	0.612	> 100	> 100	88	66	–
Cc1cccc(-c2nn3c(c2-c2ccc(O)cc2)CC(C)(C)C3)n1	0.229	> 100	20	> 25	> 25	–
Cc1cccc(-c2nn3c(c2-c2ccnc(Nc4ccc(S(N)(=O)=O)cc4)c2)CC(C)(C)C3)n1	0.147	> 100	2.5	52	92	–

The next lines start with results.

IC50 [1] [µM]	IC50 [2] [µM]	IC50 [3] [µM]	SMILES	IC50 [4] [µM]	IC50 [5] [µM]	inhibition [6]
0.181	> 100	21	Cc1cccc(-c2nn3c(c2-c2ccncc2)C(C)C(C)(C)C3)n1 (stereo not given)	> 100	> 100	–
1.41	> 100	93	Cc1cccc(-c2nn3c(c2-c2ccncc2)C(CO)C(C)(C)C3)n1 (stereo not given)	> 100	> 100	–
0.341	> 12	> 12	Cc1cccc(-c2nn3c(c2-c2ccc(O)cc2)C(C)C(C)(C)C3)c1C#N (stereo not given)	> 12	> 12	–
0.162	> 100	6.4	Cc1cccc(-c2nn3c(c2-c2ccncc2)C(C)C(C)(C)C3)c1C#N (stereo not given)	92	97	–
2.52	> 100	20	CC1(C)Cc2c(-c3ccncc3)c(-c3ccccc3C#N)nn2C1	> 100	> 100	–
5.19	> 12	> 12	CC1c2c(-c3ccc(O)cc3)c(-c3ccccc3C#N)nn2CC1(C)C (stereo not given)	> 12	> 12	–
1.29	> 100	11	CC1c2c(-c3ccncc3)c(-c3ccccc3C#N)nn2CC1(C)C (stereo not given)	77	> 100	–
0.743	> 100	25	COCC1c2c(-c3ccncc3)c(-c3cccc(C)n3)nn2CC1(C)C (stereo not given)	> 100	> 100	–
0.183	> 100	43	CCc1cccc(-c2nn3c(c2-c2ccncc2)C(C)C(C)(C)C3)n1 (stereo not given)	> 100	> 100	–
0.197	> 25	> 100	Cc1cccc(-c2nn3c(c2-c2ccc(O)cc2)[C@@H](C)C(C)(C)C3)n1	> 50	> 50	–
